According to article PMC11393453, “Phosphorylation of tau at a single residue inhibits binding to the E3 ubiquitin ligase, CHIP” (Nature Communications, 2024):
Like-named read-outs stand apart in the source and are kept apart here.

Experiments:
CHIP [1] = conditions: cited from earlier work
From the text: Moreover, the appearance of pS416 and tauC3 are coincident in AD patient samples (see Fig. 5), supporting a putative role of these PTMs in tau proteostasis. Based on these collective findings and in concert with observations from the literature, we propose a model to explain the hierarchy of these tau PTMs (Fig. 6D). In this speculative model, FL tau can either be phosphorylated by MARK2 or CaMKII ...

CHIP [2] = assay: CHIP-tau binding ELISA (tau proteoforms on immobilized CHIP)

Substance: p.tau: full length phosphorylated tau produced in Sf9 insect cells
- fold better binding of CHIP than to unmodified FL tau (CHIP [1]): 10 fold
- Kd (CHIP [2]; Fig 1C,D, tau proteoform binding to immobilized CHIP (1 µM coated), 3 h RT, technical triplicate, ± SD): ~500 nM
- Kd (CHIP [2]; Fig 1D, replicate 1): 433 nM
- Kd (CHIP [2]; Fig 1D, replicate 2): 464 nM
- Kd (CHIP [2]; Fig 1D, replicate 3): 471 nM
- Kd (CHIP [2]; read-out: transformed Kd, Fig 1D, replicate 1): 433 nM
- Kd (CHIP [2]; read-out: transformed Kd, Fig 1D, replicate 2): 464 nM
- Kd (CHIP [2]; read-out: transformed Kd, Fig 1D, replicate 3): 471 nM
